Experimental data: US20200069691A1, “HETEROCYCLIC COMPOUNDS AS HIV PROTEASE INHIBITORS” (Merck Sharp & Dohme Corp., priority 2016, published 2020)

These molecules were tested against T1, wild-type HIV-1 protease (Human immunodeficiency virus type 1 group M subtype B, UniProt P04585) (assay: Assay for Inhibition of Microbial Expressed HIV Protease (peptide substrate cleavage, LC-MS/MS readout)). Settings: E. coli expressed wild-type HIV-1 protease, mean of at least two independent experiments, read-out: HIV Pr Enzyme HIV1 PR IC50.
T1 construct: Escherichia coli expressed wild-type HIV-1 protease protein
Format: biochemical
Summary of the method: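 E. coli-expressed wild-type HIV-1 protease ([…]) was preincubated with inhibitor 30 min at room temperature in pH 5.5 acetate buffer (100 mM NaCl, 0.1% BSA). Then 400 μM octapeptide substrate was added and reacted 1 h at 30 °C; inhibition came from LC-MS/MS product peak areas, mean of ≥2 experiments.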

Q: For CCOC(=O)c1nc2n(c1Cl)CCN(C(=O)c1cccc(CN3C(=N)NC(c4ccccc4)(c4ccccc4)C3=O)c1)C2 [Compound 247, ethyl 3-chloro-7-({3-[(2-imino-5-oxo-4,4-diphenylimidazolidin-1-yl)methyl]phenyl}carbonyl)-5,6,7,8-tetrahydroimidazo[1,2-a]pyrazine-2-carboxylate], which IC50 is on record?
A: 17.9 nM

Q: For N=C1NC(c2ccc(F)cc2)(c2ccccn2)C(=O)N1Cc1cccc(C(=O)N2Cc3[nH]nc(C(F)(F)F)c3C2)c1 (stereo not shown) [Compound 248, 5-(4-fluorophenyl)-2-imino-5-pyridin-2-yl-3-(3-{[3-(trifluoromethyl)-4,6-dihydropyrrolo [3,4-c]pyrazol-5(1H)-yl]carbonyl}benzyl) imidazolidin-4-one], which IC50 is on record?
A: 18 nM

Q: How did the IC50 turn out when CC(C)CCC1(c2ccccc2)NC(=N)N(Cc2cccc(C(=O)N3Cc4nccnc4C3)c2)C1=O (stereo not shown) [Compound 249, 3-[3-(5,7-dihydro-6H-pyrrolo[3,4-b]pyrazin-6-ylcarbonyl)benzyl]-2-imino-5-(3-methylbutyl)-5-phenylimidazolidin-4-one] was run?
A: 18.1 nM

Q: Which IC50 does the source give for N=C1NC(c2ccccc2)(c2ccccc2)C(=O)N1Cc1cccc(C(=O)N2CCn3cc(C(=O)C4CC4)nc3C2)c1 [Compound 250, 3-(3-{[2-(cyclopropylcarbonyl)-5,6-dihydroimidazo [1,2-a]pyrazin-7(8H)-yl]carbonyl}benzyl)-2-imino-5,5-diphenylimidazolidin-4-one] here?
A: 18.9 nM

Q: For CNC(=O)c1nc2n(c1Cl)CCN(C(=O)c1cccc(CN3C(=N)NC(c4ccccc4)(c4ccccc4)C3=O)c1)C2 [Compound 251, 3-chloro-7-({3-[(2-imino-5-oxo-4,4-diphenylimidazolidin-1-yl)methyl]phenyl}carbonyl)-N-methyl-5,6,7,8-tetrahydroimidazo[1,2-a]pyrazine-2-carboxamide], which IC50 is on record?
A: 19.2 nM

Q: Which IC50 does the source give for CC(C)CCC1(c2ccc(F)cc2)NC(=N)N(Cc2cccc(C(=O)N3Cc4nccnc4C3)c2)C1=O (stereo not shown) [Compound 252, 3-[3-(5,7-dihydro-6H-pyrrolo[3,4-b]pyrazin-6-ylcarbonyl)benzyl]-5-(4-fluorophenyl)-2-imino-5-(3-methylbutyl)imidazolidin-4-one] here?
A: 19.8 nM

Q: How did the IC50 turn out when CC(C)CC1(c2ccccc2)NC(=N)N(Cc2cccc(C(=O)N3Cc4cncnc4C3)c2)C1=O (stereo not shown) [Compound 253, 3-[3-(5,7-dihydro-6H-pyrrolo[3,4-d]pyrimidin-6-ylcarbonyl)benzyl]-2-imino-5-(2-methylpropyl)-5-phenylimidazolidin-4-one] was run?
A: 20.1 nM

Q: For Cc1ncc2c(n1)CN(C(=O)c1cccc(CN3C(=N)NC(c4ccc(F)cc4)(c4ccc(F)cc4)C3=O)c1)C2 [Compound 254, 5,5-bis(4-fluorophenyl)-2-imino-3-{3-[(2-methyl-5,7-dihydro-6H-pyrrolo[3,4-d]pyrimidin-6-yl)carbonyl]benzyl} imidazolidin-4-one], which IC50 is on record?
A: 20.2 nM

Q: With COC(=O)N1CCN(C(=O)c2cccc(CN3C(=N)NC(CCC(C)C)(c4ccccc4)C3=O)c2)CC1 (stereo not shown) [Compound 255, methyl 4-[(3-{[2-imino-4-(3-methylbutyl)-5-oxo-4-phenylimidazolidin-1-yl]methyl}phenyl)carbonyl] piperazine-1-carboxylate] as the molecule, how does the IC50 read?
A: 20.9 nM

Q: For N=C1NC(c2ccc(F)cc2)(c2ccccn2)C(=O)N1Cc1cccc(C(=O)N2Cc3ccccc3C2)c1 (stereo not shown) [Compound 256, 3-[3-(1,3-dihydro-2H-isoindol-2-ylcarbonyl)benzyl]-5-(4-fluorophenyl)-2-imino-5-pyridin-2-ylimidazolidin-4-one], which IC50 is on record?
A: 21.1 nM

Q: Which IC50 does the source give for Cc1nc2c([nH]1)CN(C(=O)c1cccc(CN3C(=N)NC(CCC(C)C)(c4ccccc4)C3=O)c1)C2 (stereo not shown) [Compound 257, 2-imino-5-(3-methylbutyl)-3-{3-[(2-methyl-4,6-dihydropyrrolo[3,4-d]imidazol-5(1H)-yl)carbonyl]benzyl}-5-phenylimidazolidin-4-one] here?
A: 21.2 nM

Q: N=C1NC(c2ccccc2)(c2ccccc2)C(=O)N1Cc1cc(F)cc(C(=O)N2Cc3cncnc3C2)c1 [Compound 258, 3-[3-(5,7-dihydro-6H-pyrrolo[3,4-d]pyrimidin-6-ylcarbonyl)-5-fluorobenzyl]-2-imino-5,5-diphenylimidazolidin-4-one] was tested. Which IC50 did it give?
A: 22.1 nM

Q: With CC(C)CC1(c2ccccc2)NC(=N)N(Cc2cccc(C(=O)N3Cc4cccnc4C3)c2)C1=O (stereo not shown) [Compound 259, 3-[3-(5,7-dihydro-6H-pyrrolo[3,4-b]pyridin-6-ylcarbonyl)benzyl]-2-imino-5-(2-methylpropyl)-5-phenylimidazolidin-4-one] as the molecule, how does the IC50 read?
A: 22.6 nM

Q: For N=C1NC(c2ccccc2)(c2ccccc2)C(=O)N1Cc1cccc(C(=O)N2CCN(C(=O)OCc3ccccc3)CC2)c1 [Compound 260, benzyl 4-({3-[(2-imino-5-oxo-4,4-diphenylimidazolidin-1-yl)methyl]phenyl}carbonyl) piperazine-1-carboxylate], which IC50 is on record?
A: 23.2 nM

Q: For CC(C)C[C@]1(c2ccccc2)NC(=N)N([C@H](C)c2cccc(C(=O)N3Cc4cncnc4C3)c2)C1=O [Compound 261, 3-{(1R)-1-[3-(5,7-dihydro-6H-pyrrolo[3,4-d]pyrimidin-6-ylcarbonyl)phenyl]ethyl}-2-imino-5-(2-methylpropyl)-5-phenylimidazolidin-4-one], which IC50 is on record?
A: 23.5 nM

Q: N#Cc1cccc(C2(c3ccc(F)cc3)NC(=N)N(Cc3cccc(C(=O)N4Cc5ccccc5C4)c3)C2=O)c1 (stereo not shown) [Compound 262, 3-{1-[3-(1,3-dihydro-2H-isoindol-2-ylcarbonyl)benzyl]-4-(4-fluorophenyl)-2-imino-5-oxoimidazolidin-4-yl}benzonitrile] was tested. Which IC50 did it give?
A: 24.4 nM

Q: With CCC(c1cccc(C(=O)N2Cc3cncnc3C2)c1)N1C(=N)NC(c2ccccc2)(c2ccccc2)C1=O (stereo not shown) [Compound 263, 3-{1-[3-(5,7-dihydro-6H-pyrrolo[3,4-d]pyrimidin-6-ylcarbonyl)phenyl]propyl}-2-imino-5,5-diphenylimidazolidin-4-one] as the molecule, how does the IC50 read?
A: 24.7 nM

Q: With CC(C)CC1(c2cccc(F)c2)NC(=N)N(Cc2cccc(C(=O)N3Cc4ccccc4C3)c2)C1=O (stereo not shown) [Compound 264, 3-[3-(1,3-dihydro-2H-isoindol-2-ylcarbonyl)benzyl]-5-(3-fluorophenyl)-2-imino-5-(2-methylpropyl) imidazolidin-4-one] as the molecule, how does the IC50 read?
A: 24.8 nM

Q: Which IC50 does the source give for CC(C)CCC1(c2cccc(F)c2)NC(=N)N(Cc2cccc(C(=O)N3Cc4nccnc4C3)c2)C1=O (stereo not shown) [Compound 265, 3-[3-(5,7-dihydro-6H-pyrrolo[3,4-b]pyrazin-6-ylcarbonyl)benzyl]-5-(3-fluorophenyl)-2-imino-5-(3-methylbutyl)imidazolidin-4-one] here?
A: 24.8 nM

Q: How did the IC50 turn out when CC(c1cccc(C(=O)N2Cc3cncnc3C2)c1)N1C(=N)NC(c2ccccc2)(c2ccccc2)C1=O (stereo not shown) [Compound 266, 3-{1-[3-(5,7-dihydro-6H-pyrrolo[3,4-b]pyrazin-6-ylcarbonyl)phenyl]ethyl}-2-imino-5.5-diphenylimidazolidin-4-one] was run?
A: 26.1 nM

Q: Which IC50 does the source give for N=C1NC(c2ccc(F)cc2)(c2ccc(F)cc2)C(=O)N1Cc1cccc(C(=O)N2CCN(C(=O)c3ccco3)CC2)c1 [Compound 267, 5,5-bis(4-fluorophenyl)-3-(3-{[4-(furan-2-ylcarbonyl)piperazin-1-yl]carbonyl}benzyl)-2-iminoimidazolidin-4-one] here?
A: 26.3 nM

Q: How did the IC50 turn out when CC(C)CC1(c2ccccc2)NC(=N)N(Cc2cccc(C(=O)N3CCN(C(=O)c4ccco4)CC3)c2)C1=O (stereo not shown) [Compound 268, 3-(3-{[4-(furan-2-ylcarbonyl)piperazin-1-yl]carbonyl}benzyl)-2-imino-5-(2-methylpropyl)-5-phenylimidazolidin-4-one] was run?
A: 26.8 nM
